Values joined by “and” are separate entries in the source; they are usually repeats but may differ in a detail not shown here. Equal values may be shown once.
Legend:
P2X7 receptor = assay: Bead-standardized whole blood/PBMC monocyte P2X7 pore assay with PI exclusion of nonviable cells; type: cell-based, human; conditions: for BzATP Stimulated YO-PRO-1 measurement, Mean: viable monocytes
Experimental: PBMC Isolation. Six mLs of citrate-treated blood was underlayed with three mLs of Lymphoprep (Axis-Sheild, Oslo, Norway) and centrifuged at 800 g for 30 minutes at room temperature. The cellular interface was collected and washed twice with sterile phosphate-buffered saline (PBS). Cells were counted and assayed for pore activity as described below.
Sample Preparation. Although all leukocytes studied to date express P2X7, monocytes were selected as the cell population to screen because of the greater sensitivity of pore function noted between individuals participating in a small study with forty-five healthy subjects (5, 34). Staining procedures were as previously described (10, 14, 34). Briefly, aliquots of citrated whole blood ([…]) were washed twice in HEPES-buffered saline (HBS; 130 mM NaCl, 5 mM KCl, 20 mM HEPES pH 7.4, 0.1% bovine serum albumin, 10 mM glucose; components purchased at Sigma, St. Louis, Mo.) and resuspended in the original 500 L volume. A 10 μL aliquot of anti-human CD14 antibody conjugated to phycoerythrin (CD14-PE, 50 μg/mL; BD Biosciences, San Diego, Calif.) was added to each sample and incubated at room temperature for 20 min. The cells were washed twice in a potassium glutamate buffer (130 mM potassium glutamate, 5 mM KCl, 20 mM HEPES pH 7.4, 0.1% bovine serum albumin, 10 mM glucose; components from Sigma) to maximize the differences between high and low pore activities (17).
Samples were adjusted to 10 mM magnesium chloride, washed in HEPES-buffered saline and diluted to a volume of 2.5 mL in HBS. These latter steps have been previously shown to close the pore rapidly allowing for kinetic precision in a large clinical study (10, 34). For the methods described here, including all the samples from the MIA trial (Table 3), propidium iodide (PI; 5 μg/mL) was added to each sample and incubated for 15 min prior to sample acquisition using flow cytometry as described below.
Determination of Instrument Settings and Calculation of Spectral Overlap. All instruments in the facility are cleaned daily and assessed for laser alignment, photomultiplier tube (PMT) performance, linearity and noise. All fluorochromes were excited with a 488 nm laser and the following filter sets were used in all flow cytometers: a BP 530/30 for YO-PRO-1, a BP 585/42 for PE and a LP 670 for propidium iodide. Experiments were performed on FACScan, FACSCalibur, and LSR II flow cytometers (Becton Dickinson, San Jose, Calif.) in conjunction with the CellQuest, CellQuestPro, FACSDiva acquisition and analysis software programs (v. 3.3, v. 4.0, and v. 5.0.1, respectively; Becton Dickinson).
Previously, pore activity was measured on a FACScan flow cytometer (Becton Dickinson, San Jose, Calif.) using recalled instrument settings: YO-PRO-1 at 410 mV, PE at 412 mV, acquisition threshold for PE at 324 mV, and PE-32.6% YO-PRO-1 compensation (10). To facilitate comparisons across instrument platforms and among laboratories, we used these recalled settings as a template to adapt desired PMT voltages for SpheroTM Rainbow fluorescent particles (mid-range 3.0-3.4 μm; Sperotech, Lake Forest Ill.), corresponding data shown in FIG. 15. Rainbow particles have a very stable fluorescence and can be stored and used over a long period of time, allowing the intensities of these particles in each fluorescent detector to serve as target values for determining the voltages applied to each PMT for all of the cytometers used.
The same target values were used for the analog instruments, FACScan and FACSCalibur (BD Biosciences, San Jose, Calif.) because these instruments process fluorescence signals in the same way and the intensities determined were very close (data not shown). The LSR II (BD Biosciences, San Jose, Calif.) uses digital processing and fluorescence is collected and sampled differently so a second set of target values using these same samples was determined for each color detector on this cytometer. […]

P2X7 = biological target: T1, P2X7 (Homo sapiens, UniProt Q99572); assay: YO-PRO-1 plate assay of P2X7 agonists with astrocytoma cell line 1321N1; type: cell-based; conditions: for YO-PRO-1 fluorescence (485/20, 528/20), single well: 5 × 10^4 1321N1 cells; for YO-PRO-1 fluorescence, average of duplicate wells: 1321N1 cells, agent + YOPRO;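 on all read-outs here: dye uptake read after 20 min agonist exposure with YO-PRO-1 present, unbound dye removed by washing before reading in a fluorescence plate reader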
T1 construct: host or cells: astrocytoma cell line (the earlier reading names it 1321N1)
T1 sequence (Q99572 1-595): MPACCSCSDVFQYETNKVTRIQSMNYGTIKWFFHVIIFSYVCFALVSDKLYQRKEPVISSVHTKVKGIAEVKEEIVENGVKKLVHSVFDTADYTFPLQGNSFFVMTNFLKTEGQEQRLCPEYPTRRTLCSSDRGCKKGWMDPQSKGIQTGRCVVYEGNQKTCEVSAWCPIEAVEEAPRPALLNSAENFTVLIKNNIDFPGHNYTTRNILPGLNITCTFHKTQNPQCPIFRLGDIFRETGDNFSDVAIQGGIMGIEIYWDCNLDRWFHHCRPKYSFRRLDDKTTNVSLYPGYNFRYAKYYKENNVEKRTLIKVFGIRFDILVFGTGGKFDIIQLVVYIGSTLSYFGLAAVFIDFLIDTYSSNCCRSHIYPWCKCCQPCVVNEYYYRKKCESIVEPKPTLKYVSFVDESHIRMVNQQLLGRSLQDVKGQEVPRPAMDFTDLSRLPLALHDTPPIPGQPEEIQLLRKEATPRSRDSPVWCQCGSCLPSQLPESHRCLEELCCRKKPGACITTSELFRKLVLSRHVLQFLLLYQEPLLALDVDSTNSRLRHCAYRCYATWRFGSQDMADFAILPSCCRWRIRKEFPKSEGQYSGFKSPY

For “2′-3′-O-(4-benzoylbenzoyl)-adenosine 5′-triphosphate [Bz-ATP]”, the “BzATP Stimulated median YO-PRO-1 fluorescence” value (P2X7 receptor; Ficoll prep PBMC, A, Bead-Adjusted compensation) was 292, the “BzATP Stimulated YO-PRO-1 measurement, Mean” value (P2X7 receptor; Low Responder donor, Bead Adjusted PMT method) was 30.1 and the “BzATP Stimulated YO-PRO-1 measurement, Mean” value (P2X7 receptor; Low Responder donor, Recalled PMT method) was 30.0. The “BzATP Stimulated YO-PRO-1 measurement, Mean” value (P2X7 receptor; Normal Responder donor, Bead Adjusted PMT method) was 1019.0, the “BzATP Stimulated YO-PRO-1 measurement, Mean” value (P2X7 receptor; Normal Responder donor, Recalled PMT method) was 983.0 and the “BzATP Stimulated median YO-PRO-1 fluorescence” value (P2X7 receptor; Whole blood, A, Bead-Adjusted compensation) was 276. The “BzATP Stimulated median YO-PRO-1 fluorescence” value (P2X7 receptor; Whole blood, B, Uncompensated) was 30.7, the “BzATP Stimulated median YO-PRO-1 fluorescence” value (P2X7 receptor; Whole blood, B, YO-PRO-PE Set at 2%) was 27.4 and the “BzATP Stimulated median YO-PRO-1 fluorescence” value (P2X7 receptor; Whole blood, C, Uncompensated) was 1071. The “BzATP Stimulated median YO-PRO-1 fluorescence” value (P2X7 receptor; Whole blood, C, YO-PRO-PE Set at 2%) was 1067, the “YO-PRO-1 fluorescence (485/20, 528/20), single well” value (“YO-PRO-1 fluorescence … single well” below) (P2X7; agent 1 μM + YOPRO) was 98 and 89 and the “YO-PRO-1 fluorescence … single well” value (P2X7; agent 3 μM + YOPRO) was 188. For the same substance, the “YO-PRO-1 fluorescence … single well” value (P2X7; agent 10 μM + YOPRO) was 213, the “YO-PRO-1 fluorescence … single well” value (P2X7; agent 30 μM + YOPRO) was 217 and the “YO-PRO-1 fluorescence … single well” value (P2X7; agent 100 μM + YOPRO) was 223 and 214. The “YO-PRO-1 fluorescence … single well” value (P2X7; agent 300 μM + YOPRO) was 220 and 232, the “YO-PRO-1 fluorescence, average of duplicate wells” value (P2X7; 1 uM) was 93.5 and the “YO-PRO-1 fluorescence, average of duplicate wells” value (P2X7; 3 uM) was 188.

Source: patent US7960131B2, “Functional genomic pore assay for mixed cell populations” (Wisconsin Alumni Research Foundation, priority 2003, dated 2011)
